Measurements as given in US20260285850A1, “SUBSTITUTED OXAZOLIDINONES AND IMIDAZOLINONES AS HERBICIDES” (FMC CORPORATION, priority 2023, published 2026).

Tests used:
Format in all cases: in vivo
[1] = test system: oat, wild (wild oat, Avena fatua); assay: Test A preemergence soil spray, visual injury rating 0-100; details: 10 days
In short: (§1)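 Plants in a loam and sand soil blend were treated with each test chemical, in a non-phytotoxic solvent system including surfactant, either sprayed on seeded soil before emergence or applied after emergence at the one- to two-leaf stage. Ten days later in the greenhouse, plants were compared with untreated controls and visually rated from 0 (no effect) to 100 (complete control).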

corn (Zea mays) [2] = assay: as above; details: 10 days
In short: as §1

[3] = test system: palmer (palmer amaranth, palmer pigweed, Amaranthus palmeri); assay: as above; details: 10 days
In short: as §1

[4] = test system: ragweed (common ragweed, Ambrosia artemisiifolia); assay: as above; details: 10 days
In short: as §1

[5] = test system: ryegrass, Italian (italian ryegrass, Lolium multiflorum); assay: as above; details: 10 days
In short: as §1

kochia (Bassia scoparia) [6] = assay: as above; details: 16 g ai/ha, 0 to 100 scale, 10 days
In short: as §1

soybean (Glycine max) [7] = assay: as above; details: 10 days
In short: as §1

[8] = test system: green foxtail (Setaria viridis); assay: as above; details: 10 days
In short: as §1

[9] = test system: wheat (Triticum aestivum); assay: as above; details: 10 days
In short: as §1

[10] = test system: blackgrass (Alopecurus myosuroides); assay: as above; details: 10 days
In short: as §1

[11] = test system: barnyardgrass (Echinochloa crus-galli); assay: as above; details: 10 days
In short: as §1

[12] = test system: oat, wild (wild oat, Avena fatua); assay: Test A postemergence application, visual injury rating 0-100
In short: as §1

corn (Zea mays) [13] = assay: as above
In short: as §1

[14] = test system: galium (catchweed bedstraw, Galium aparine); assay: as above
In short: as §1

[15] = test system: palmer (palmer amaranth, palmer pigweed, Amaranthus palmeri); assay: as above
In short: as §1

[16] = test system: ragweed (common ragweed, Ambrosia artemisiifolia); assay: as above
In short: as §1

[17] = test system: ryegrass, Italian (italian ryegrass, Lolium multiflorum); assay: as above
In short: as §1

kochia (Bassia scoparia) [18] = assay: as above
In short: as §1

soybean (Glycine max) [19] = assay: as above
In short: as §1

[20] = test system: horseweed (Erigeron canadensis); assay: as above
In short: as §1

[21] = test system: green foxtail (Setaria viridis); assay: as above
In short: as §1

[22] = test system: wheat (Triticum aestivum); assay: as above
In short: as §1

[23] = test system: blackgrass (Alopecurus myosuroides); assay: as above
In short: as §1

[24] = test system: barnyardgrass (Echinochloa crus-galli); assay: as above
In short: as §1

[25] = test system: barnyardgrass (Echinochloa crusgalli); assay: Test B flooded paddy test, visual plant response rating 0-100; details: 250 g ai/ha, Flood, applied to paddy water, evaluated after 13 days
In short: (§2)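 Treatment occurs at the 2-leaf stage by adding compound to floodwater standing 3 cm above the soil, a level kept for the whole test. Plants stay in the greenhouse 13 days before visual comparison with controls.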

rice (Oryza sativa) = assay: as above; details: 250 g ai/ha, Flood, applied to paddy water, evaluated after 13 days
In short: as §2

[26] = test system: ducksalad (Heteranthera limosa); assay: as above; details: 250 g ai/ha, Flood, applied to paddy water, evaluated after 13 days
In short: as §2

[27] = test system: sedge, umbrella (small-flower umbrella sedge, Cyperus difformis); assay: as above; details: 250 g ai/ha, Flood, applied to paddy water, evaluated after 13 days
In short: as §2

[28] = 62 g ai/ha, 0 = no effect, 100 = complete control
[29] = 62 g ai/ha, postemergence, 10 days, 0 = no effect, 100 = complete control
[30] = Postemergence, 16 g ai/ha, greenhouse 10 days, 0 no effect, 100 complete control

CCOC(=O)C1C=CC(NC(=O)C2(C)CN(c3cccc(OC(F)(F)F)c3)C(=O)O2)C1 (stereo not drawn) [Compound 102]
80: Barnyardgrass plant response rating (0-100) [24, 29]
60: Oat, Wild plant response rating (0-100) [12, 29] | Corn plant response rating (0-100) (corn (Zea mays) [13]; [29])
90: Blackgrass plant response rating (0-100) [23, 29]
0: Oat, Wild plant response rating ([1]; 16 g ai/ha, 0 to 100 scale) | Corn plant response rating (corn (Zea mays) [2]; 16 g ai/ha, 0 to 100 scale) | Pigweed, Palmer plant response rating ([3]; 16 g ai/ha, 0 to 100 scale) | Pigweed, Palmer plant response rating (0-100) [3, 28] | Ragweed plant response rating ([4]; 16 g ai/ha, 0 to 100 scale) | Ragweed plant response rating (0-100) [4, 28] | Ryegrass, Italian plant response rating ([5]; 16 g ai/ha, 0 to 100 scale) | Kochia plant response rating (kochia (Bassia scoparia) [6]) | Soybean plant response rating (soybean (Glycine max) [7]; 16 g ai/ha, 0 to 100 scale) | Soybean plant response rating (0-100) (soybean (Glycine max) [7]; [28]) | Foxtail, Green plant response rating ([8]; 16 g ai/ha, 0 to 100 scale) | Wheat plant response rating ([9]; 16 g ai/ha, 0 to 100 scale) | Blackgrass plant response rating ([10]; 16 g ai/ha, 0 to 100 scale) | Barnyardgrass plant response rating ([11]; 16 g ai/ha, 0 to 100 scale) | Barnyardgrass plant response rating (0-100) [11, 28] | Corn plant response rating (0 to 100 scale) (corn (Zea mays) [13]; [30]) | Pigweed, Palmer plant response rating (0 to 100 scale) [15, 30] | Ragweed plant response rating (0 to 100 scale) [16, 30] | Kochia plant response rating (0 to 100 scale) (kochia (Bassia scoparia) [18]; [30]) | Plant response rating, Barnyardgrass (0 to 100 scale, 0 is no effect and 100 is complete control) [25] | Plant response rating, Rice (0 to 100 scale, 0 is no effect and 100 is complete control) (rice (Oryza sativa)) | Plant response rating, Ducksalad (0 to 100 scale, 0 is no effect and 100 is complete control) [26] | Plant response rating, Sedge, Umbrella (0 to 100 scale, 0 is no effect and 100 is complete control) [27]
10: Corn plant response rating (0-100) (corn (Zea mays) [2]; [28]) | Foxtail, Green plant response rating (0-100) [8, 28] | Pigweed, Palmer plant response rating (0-100) [15, 29] | Horseweed plant response rating (0-100) [20, 29] | Foxtail, Green plant response rating (0 to 100 scale) [21, 30]
50: Galium plant response rating (0 to 100 scale) [14, 30] | Soybean plant response rating (0-100) (soybean (Glycine max) [19]; [29]) | Blackgrass plant response rating (0 to 100 scale) [23, 30]
70: Ryegrass, Italian plant response rating (0-100) [5, 28] | Galium plant response rating (0-100) [14, 29] | Ryegrass, Italian plant response rating (0-100) [17, 29] | Kochia plant response rating (0-100) (kochia (Bassia scoparia) [18]; [29])
30: Oat, Wild plant response rating (0-100) [1, 28] | Blackgrass plant response rating (0-100) [10, 28] | Soybean plant response rating (0 to 100 scale) (soybean (Glycine max) [19]; [30]) | Barnyardgrass plant response rating (0 to 100 scale) [24, 30]
20: Wheat plant response rating (0-100) [9, 28] | Oat, Wild plant response rating (0 to 100 scale) [12, 30] | Ragweed plant response rating (0-100) [16, 29] | Ryegrass, Italian plant response rating (0 to 100 scale) [17, 30] | Horseweed plant response rating (0 to 100 scale) [20, 30] | Foxtail, Green plant response rating (0-100) [21, 29] | Wheat plant response rating (0-100) [22, 29] | Wheat plant response rating (0 to 100 scale) [22, 30]
